Patent US10131652B2, “Pyrimidinyloxy benzene derivatives as herbicides” (E. I. DU PONT DE NEMOURS AND COMPANY, priority 2014, dated 2018)

Columns and labels:
Type in all cases: in vivo
[1] = test system: barnyardgrass (Echinochloa crus-galli); assay: Test B pre-/postemergence plant response
Summary of the method: (§1)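 Ratings reflect visual injury versus untreated controls, from 0 for no effect to 100 for complete control, assessed roughly 10 days after treatment. Formulation: non-phytotoxic solvent mix with surfactant; pre- and postemergence sprays on plants grown in loam soil and sand.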

[2] = test system: Italian ryegrass (Lolium multiflorum); assay: Test B pre-/postemergence plant response
Summary of the method: as §1

[3] = test system: wheat (Triticum aestivum); assay: Test B pre-/postemergence plant response; conditions: 0 to 100 scale, 0 no effect, 100 complete control
Summary of the method: as §1

[4] = test system: pigweed (Amaranthus retroflexus); assay: Test B pre-/postemergence plant response
Summary of the method: as §1

[5] = test system: giant foxtail (Setaria faberii); assay: Test B pre-/postemergence plant response
Summary of the method: as §1

[6] = test system: ragweed (common ragweed, Ambrosia elatior); assay: Test B pre-/postemergence plant response
Summary of the method: as §1

corn (Zea mays) = assay: Test B pre-/postemergence plant response; conditions: 0 to 100 scale, 0 no effect, 100 complete control
Summary of the method: as §1

kochia (Kochia scoparia) [7] = assay: Test B pre-/postemergence plant response
Summary of the method: as §1

[8] = test system: chickweed (common chickweed, Stellaria media); assay: Test D postemergence plant response; conditions: for Chickweed plant response rating: scale 0 to 100 (0 no effect, 100 complete control); for Plant response rating, Chickweed: scale 0 to 100, 0 no effect, 100 complete control
Summary of the method: (§2)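 Scores reflect visual plant response relative to untreated controls on a 0 to 100 scale, where 100 means complete control. Treatment was postemergence on 2–18 cm plants in peat-based potting medium, with greenhouse assessment 13–15 days later.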

wild oat (Avena fatua) = assay: Test D postemergence plant response; conditions: for Oat, Wild plant response rating: 31 g ai/ha, scale 0 to 100 (0 no effect, 100 complete control); for Plant response rating, Oat, Wild: scale 0 to 100, 0 no effect, 100 complete control
Summary of the method: as §2

kochia (Kochia scoparia) [9] = assay: Test D postemergence plant response; conditions: for Kochia plant response rating: 31 g ai/ha, scale 0 to 100 (0 no effect, 100 complete control); for Plant response rating, Kochia: scale 0 to 100, 0 no effect, 100 complete control
Summary of the method: as §2

[10] = test system: barnyardgrass (Echinochloa crus-galli); assay: Test C flooded paddy test plant response; conditions: Flood, 250 g ai/ha; scale of 0 to 100 where 0 is no effect and 100 is complete control; 13 to 15 days
Summary of the method: (§3)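 Readout is a visual 0–100 score (100 = complete control) versus controls at 13–15 days. Plants at 2-leaf stage, flooded to 3 cm, treated through paddy water.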

rice (Oryza sativa) = assay: Test C flooded paddy test plant response; conditions: Flood, 250 g ai/ha; scale of 0 to 100 where 0 is no effect and 100 is complete control; 13 to 15 days
Summary of the method: as §3

[11] = test system: ducksalad (Heteranthera limosa); assay: Test C flooded paddy test plant response; conditions: Flood, 250 g ai/ha; scale of 0 to 100 where 0 is no effect and 100 is complete control; 13 to 15 days
Summary of the method: as §3

[12] = test system: small-flower umbrella sedge (Cyperus difformis); assay: Test C flooded paddy test plant response; conditions: Flood, 250 g ai/ha; scale of 0 to 100 where 0 is no effect and 100 is complete control; 13 to 15 days
Summary of the method: as §3

[13] = test system: galium (catchweed bedstraw, Galium aparine); assay: Test B postemergence plant response; conditions: 0 to 100 scale, 0 no effect, 100 complete control
Summary of the method: (§4)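 Seedlings in a loam soil and sand mix received a postemergence application of the formulated chemicals at the one- to two-leaf stage (2–10 cm tall). They were kept in a greenhouse for roughly 10 days, then scored for injury relative to untreated plants, 0 meaning no effect and 100 complete control.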

[14] = test system: blackgrass (Alopecurus myosuroides); assay: Test B postemergence plant response; conditions: 0 to 100 scale, 0 no effect, 100 complete control
Summary of the method: as §4

[15] = 31 g ai/ha, Postemergence, 0 to 100 scale, 0 no effect, 100 complete control
[16] = 31 g ai/ha, Preemergence, 0 to 100 scale where 0 is no effect and 100 is complete control
[17] = 125 g ai/ha, postemergence, 0 to 100 scale, 0 no effect, 100 complete control
[18] = Preemergence, 125 g ai/ha, 0 to 100 scale where 0 is no effect and 100 is complete control
[19] = Preemergence, 125 g ai/ha, 0 to 100 scale (0 no effect, 100 complete control)

FC(F)c1cc(-c2c(Cl)cccc2Oc2ncc(Br)cn2)on1 [Compound 121]
100: Plant response rating, Pigweed [4, 15] | Plant response rating, Pigweed [4, 16] | Plant response rating, Pigweed [4, 17] | Plant response rating, Foxtail, Giant [5, 16] | Plant response rating, Foxtail, Giant [5, 18] | Plant response rating, Kochia (kochia (Kochia scoparia) [7]; [18]) | Chickweed plant response rating ([8]; 31 g ai/ha) | Plant response rating, Chickweed ([8]; 62 g ai/ha) | Plant response rating, Chickweed ([8]; 125 g ai/ha) | Kochia plant response rating (kochia (Kochia scoparia) [9]) | Plant response rating, Kochia (kochia (Kochia scoparia) [9]; 62 g ai/ha) | Plant response rating, Kochia (kochia (Kochia scoparia) [9]; 125 g ai/ha) | Plant response rating, Galium ([13]; 31 g ai/ha, Postemergence) | Plant response rating, Galium ([13]; 125 g ai/ha, postemergence)
95: Chickweed plant response rating ([8]; 16 g ai/ha)
90: Plant response rating, Barnyardgrass [1, 17] | Plant response rating, Barnyardgrass [1, 18] | Plant response rating, Foxtail, Giant [5, 17] | Plant response rating, Kochia (kochia (Kochia scoparia) [7]; [15]) | Plant response rating, Kochia (kochia (Kochia scoparia) [7]; [17]) | Ducksalad plant response rating [11] | Sedge, Umbrella plant response rating [12]
45: Oat, Wild plant response rating (wild oat (Avena fatua)) | Rice plant response rating (rice (Oryza sativa))
0: Plant response rating, Wheat ([3]; 31 g ai/ha, Postemergence)
80: Plant response rating, Blackgrass ([14]; 125 g ai/ha, postemergence)
10: Plant response rating, Ragweed [6, 16]
60: Plant response rating, Ragweed [6, 17] | Plant response rating, Kochia (kochia (Kochia scoparia) [7]; [16]) | Barnyardgrass plant response rating [10]
30: Plant response rating, Ryegrass, Italian [2, 16] | Plant response rating, Wheat ([3]; 125 g ai/ha, postemergence)
50: Plant response rating, Barnyardgrass [1, 15] | Plant response rating, Ryegrass, Italian [2, 15] | Plant response rating, Ragweed [6, 15] | Plant response rating, Blackgrass ([14]; 31 g ai/ha, Postemergence)
40: Plant response rating, Corn (corn (Zea mays); 125 g ai/ha, postemergence)
20: Plant response rating, Corn (corn (Zea mays); 31 g ai/ha, Postemergence)
70: Plant response rating, Barnyardgrass [1, 16] | Plant response rating, Ryegrass, Italian [2, 17] | Plant response rating, Foxtail, Giant [5, 15] | Plant response rating, Oat, Wild (wild oat (Avena fatua); 62 g ai/ha) | Plant response rating, Oat, Wild (wild oat (Avena fatua); 125 g ai/ha)

Fc1cccc(Oc2ncc(Cl)cn2)c1-c1cc(C2CC2)on1 [Compound 130]
50: Plant response rating, Barnyardgrass [1, 16] | Ryegrass, Italian plant response rating [2, 19] | Plant response rating, Foxtail, Giant [5, 15] | Plant response rating, Kochia (kochia (Kochia scoparia) [7]; [16]) | Plant response rating, Blackgrass ([14]; 31 g ai/ha, Postemergence)
10: Plant response rating, Ragweed [6, 16]
40: Plant response rating, Barnyardgrass [1, 15] | Plant response rating, Wheat ([3]; 125 g ai/ha, postemergence) | Plant response rating, Corn (corn (Zea mays); 125 g ai/ha, postemergence)
100: Plant response rating, Barnyardgrass [1, 17] | Plant response rating, Pigweed [4, 16] | Plant response rating, Pigweed [4, 17] | Pigweed plant response rating [4, 19] | Foxtail, Giant plant response rating [5, 19] | Plant response rating, Kochia (kochia (Kochia scoparia) [9]; 62 g ai/ha) | Plant response rating, Kochia (kochia (Kochia scoparia) [9]; 125 g ai/ha)
15: Oat, Wild plant response rating (wild oat (Avena fatua))
30: Rice plant response rating (rice (Oryza sativa))
70: Kochia plant response rating (kochia (Kochia scoparia) [7]; [19])
20: Plant response rating, Ryegrass, Italian [2, 16] | Ragweed plant response rating [6, 19] | Plant response rating, Corn (corn (Zea mays); 31 g ai/ha, Postemergence)
35: Plant response rating, Oat, Wild (wild oat (Avena fatua); 62 g ai/ha)
90: Barnyardgrass plant response rating [1, 19] | Plant response rating, Foxtail, Giant [5, 16] | Plant response rating, Kochia (kochia (Kochia scoparia) [7]; [17]) | Ducksalad plant response rating [11] | Sedge, Umbrella plant response rating [12] | Plant response rating, Galium ([13]; 125 g ai/ha, postemergence)
60: Plant response rating, Ryegrass, Italian [2, 17] | Plant response rating, Ragweed [6, 17] | Plant response rating, Oat, Wild (wild oat (Avena fatua); 125 g ai/ha)
80: Plant response rating, Foxtail, Giant [5, 17] | Chickweed plant response rating ([8]; 16 g ai/ha) | Chickweed plant response rating ([8]; 31 g ai/ha) | Plant response rating, Chickweed ([8]; 62 g ai/ha) | Plant response rating, Blackgrass ([14]; 125 g ai/ha, postemergence)
95: Plant response rating, Chickweed ([8]; 125 g ai/ha) | Kochia plant response rating (kochia (Kochia scoparia) [9])
65: Barnyardgrass plant response rating [10]
